{
  "source": "patent US20110009454A1",
  "about": "“COMPOSITION FOR AGRICULTURAL USE FOR CONTROLLING OR PREVENTING PLANT DISEASES CAUSED BY PLANT PATHOGENS” (SUMITOMO CHEMICAL COMPANY, LIMITED, priority 2008, published 2011)",
  "system": "Grape Downy Mildew (Plasmopara viticola)",
  "experiment": "Test Example 6: treating grape downy mildew, foliage application",
  "conditions": "500 ppm, foliage application 1 day after inoculation (curative), grape (Berry-A or Chardonnay seedling), 5 days green house then 1 day high humidity",
  "description": "Such control effect was evaluated by visually observing the area of blotch on a test plant during a test and then comparing the area of the blotch of a plant treated with the controlling reagent of the present invention with the area of the blotch of an untreated plant.\nA plastic pot was filled with sandy soil, and grape (variety: Berry-A or Chardonnay seedling) was then seeded. The grape plants were allowed to grow in a green house for 40 days. A water suspension of zoosporangium of grape Plasmopara viticola was inoculated to the aforementioned pot by spaying it. Thereafter, the grape plants were left at 23° C. at a high humidity for 1 day, and they were then air-dried, so as to obtain grape downy mildew-infected nursery plants. […] The prepared flowable formulations were set to a predetermined concentration (500 ppm) by diluting them with water, and they were then subjected to foliage application such that they could be sufficiently attached to the leaves of the aforementioned nursery grape plants. After completion of the foliage application, the plants were subjected to air-drying, and they were then left at 23° C. in a green house for 5 days. Thereafter, the plants were further left at 23° C. at a high humidity for 1 day. Thereafter, the affected areas thereof were examined.",
  "data": [
    {"smiles": "Cc1ccc(Oc2ccc(CNC(=O)c3cccnc3N)s2)cc1", "note": "[compound 236]", "values": [
      {"measurement": "affected areas of treated plants relative to affected areas of untreated plants", "result": "≤ 30", "unit": "%"}
    ]}
  ]
}
